Measurements: patent publication US7888319B2, “Compositions and methods for promoting wound healing and tissue regeneration” (MUSC Foundation for Research Development, priority 2004, dated 2011)
Ends that are not written are not given here.

Assays:
brain penetration injury = assay: Penetration injury of brain in adult rat with hollow fiber membrane (HFM) implant; assay type: in vivo
Description: (b) and (c) show low magnification survey views of sections of brain tissue (cortex) surrounding hollow fiber membrane (HFM) implants filled with ACT peptide (100 μM) plus vehicle gel (b) or collagen vehicle gel alone as control (c). In the control tissue (c), a high density of immunolabeled GFAP-positive astrocytes is observed near the site of injury caused by the HFM. The density of these cells appears to diminish slightly distal from the injury. […] Indeed, the levels of GFAP positive cells are not dissimilar to those seen in normal uninjured brain tissue. The regions of tissue within the white rectangles in figures (b) and (c) are shown at higher magnification in (d) and (e) respectively. In the brain injury treated by ACT peptide (d), it can be seen that GFAP-positive astrocytes are not only less numerous, but are also smaller than those seen in the control injury (e).
(a) and (b) show low magnification survey views of sections of brain tissue (cortex) surrounding HFM implants (implant or injury border is shown by arrows) filled with control collagen vehicle gel or ACT peptide plus vehicle gel at 1 week following brain penetration injury. In the control tissue (b), a high density of immunolabeled GFAP-positive astrocytes and a low density of NeuN immunolabeled neurons are observed near the site of injury caused by the HFM. The density of these cells appears to diminish and increase, respectively, distal from the HFM. […] The areas in (a) and (b) proximal to the HFMs are shown at high magnification views in (c) and […], respectively. Again, in the control tissue (d) a striking increase in the density of GFAP-positive astrocytes and a reduced density of NeuN-positive neurons is observed compared to ACT peptide treated tissue (c). A complementary pattern is observed near the HFM containing ACT peptide, with NeuN positive neurons predominating over astrocytes (c).
Anesthetized adult rats were positioned in a stereotaxic apparatus. A midline incision was made on the scalp to expose the skull. A stereotaxic drill was sighted 2 mm posterior to the bregma and 2 holes were drilled with a 1 mm spherical bit, each at 2.5 mm to the right and left of the bregma, and 3.5 mm below the dura. A cerebral lesion was made by inserting an 18-gauge needle. The coordinates were determined from the atlas by Paxinos and Watson (1986). The hollow fiber membrane (HFM) was inserted in the hole and external skin sutures were placed to cover the stab. The ACT peptide was dissolved at 100 μM concentration in a 2% collagen vehicle solution contained within the HFM. […] Reactive astrocytosis associated with inflammation and subsequently with glial scar formation follows a well characterized time course after brain injury in rodent models (Norenberg, 1994; Fawcett and Asher, 1999). […]

[1] = test system: 5 mm-diameter excisional skin wounds; assay: Quantitative assessment of wound closure, tissue regeneration and tensile strength of 5 mm excisional skin wounds; assay type: in vivo, mouse
Description: ACT peptide (n=12) and control (n=8) 5 mm-diameter excisional skin wounds were generated on adult mice as described above. Quantitative assessments of wound closure rate, counts of regenerated hair follicles and tensile strength measurements were then undertaken on the wounded skin at time points up to 90 days following the initial insult. […] Similarly, at 10 days, when most wounds were nearing completion of closure, a highly significant difference was still maintained such that ACT peptide-treated wounds were on average 43% smaller than control wounds. […] Studies were undertaken of the mechanical properties of healed 5 mm diameter excisional wounds at 1 month and 3 months following injury. For mechanical property measurements, the skin samples were obtained after sacrificing the animal and evaluated using a MTS 858 Mini Bionix (MTS Systems Corporation, MN, USA) equipped with a 5 kg load cell. During measurement the skin sample was extended to break at a rate of 0.5 mm/s. Force and extension was measured at break. The tensile strength (stress) and extension to break (strain) was calculated as follows, Stress (N/mm^2)=Force at break (N)/cross-sectional area of sample (mm^2). Strain (%)=[Increase in length at break (mm)/Original length (mm)]×100. Stress and strain calculations for each wounded skin sample was normalized to a normal skin sample from a nearby area collected from the same animal. […] At 3 months, normalized stress to break of peptide-treated wound skin was on average double that of control wounded skin, although the high variance within the treatment group precluded significant mean separation from the control. […] Further, significant improvements in extensibility of peptide-treated wounds were found. […] By contrast, control wounds at 3 months remained only 60% as extensible as normal skin.

[2] = test system: 5 mm diameter excisional skin wounds; assay: Small (5 mm) excisional skin wounds in adult mice, ACT 1 to ACT 5; assay type: in vivo, mouse; settings: for closure, inflammation, healing and scarring of injuries: 100 μM in pluronic gel, 50-60 μl, applied at 0 and 24 hours, 240 hour time course (10 days), vs gel without peptide; for wound closure rates (area of open wound as % of unclosed wound relative to the control): ~5 mice per condition, Mann-Whitney U-test over the time course
Description: Anesthetized adult mice had 2 small (5 mm diameter) excisional skin wounds made by fine surgical scissors on the neck and (upper) back. The boundaries of the injuries were demarcated by a 5 mm wide circular template cut in a plastic sheet. 50-60 μl of a solution of 20% pluronic gel containing either no (control) or one of the ACT peptides (ACT 2-SEQ ID NO: 1, ACT 1-SEQ ID NO:2, ACT 3-SEQ ID NO:3, ACT 4-SEQ ID NO:4, ACT 5-SEQ ID NO:5) dissolved at concentrations of 100 μM were then applied to the excisional injuries. Control or ACT peptide-containing gel was applied subsequently 24 hours after the initial application. No further applications of control and ACT peptide-containing gel were made after the second application. […] Note that the same wound on the same animal is shown at the different time points during the healing time course. Anesthetized adult mice had 2 small (5 mm diameter) excisional skin wounds made by fine surgical scissors on the neck and (upper) back. The boundaries of the injuries were demarcated by a 5 mm wide circular template cut in a plastic sheet. 50-60 μl of a solution of 30% pluronic gel containing either no (control) or one of the ACT peptides (ACT 2—SEQ ID NO:1, ACT 1—SEQ ID NO:2, ACT 3—SEQ ID NO:3, ACT 4—SEQ ID NO:4, ACT 5—SEQ ID NO:5) dissolved at concentrations of 100 μM were then applied to the excisional injuries. Control or ACT peptide-containing gels were applied subsequently 24 hours after the initial application. No further applications of control and ACT peptide-containing gel were made after the second application. […] Note that the same wound on the same animal is shown at the different time points during the healing time course. The area of open wound was measured during the time course using NIH image according to standard protocols on multiple (˜5 mice per control or treatment condition) adult mice. These individual area measurements were then normalized to (i.e., divided by) the average area measured for the control injuries for a given time point, multiplied by 100 to give a % of unclosed wound relative to the control and then plotted against time. A Mann-Whitney U-test was used to statistically assess the effects of ACT peptides over the time course. […] These treatments provided results with significant p values.

NIH-3T3 cells = assay: In vitro scratch injury of NIH-3T3 monolayer (repopulation, PCNA immunolabeling); assay type: cell-based; settings: 30 μM, 24 hours after scratch
Description: An NIH-3T3 monolayer was pre-treated with ACT 1 peptide (SEQ ID NO:2) for 24 hrs, and “scratch-injured” with a p200 pipette tip. The “scratch injury” was subsequently allowed to “heal” for 24 hours in the presence of (a, b) 30 μM ACT 1 peptide (SEQ ID NO:2), (c, d) 30 μM non-active control peptide (SEQ ID NO: 55), or (e, f) vehicle control solution containing no ACT peptide or control peptide. […] The repopulation of the “scratch injury” occurs in part via migration of the transformed cells crawling into the “scratch injury” area. Figures (b), (d) and (f) show proliferating cell nuclear antigen (PCNA) immunolabeling of cells in the “scratch injury” or at the injury edge.
NIH-3T3 fibroblasts were “scratch injured” and subject to the continuous presence of 30 μM ACT 1 peptide (SEQ ID NO:2) for 24 hours or the control conditions as outlined in FIG. 2. […] The cells have been labeled with fluorescent phalloidin to aid visualization. ACT peptide-treated cells show low levels of repopulation of the scratch injury area (white double headed arrows).
NIH-3T3 cells were grown over 2-3 days until forming a near-confluent monolayer on a tissue culture dish according to standard protocols and the monolayer was then pre-treated with ACT 1 peptide (SEQ ID NO:2) for 24 hrs, and “scratch-injured” with a p200 pipette tip. The “scratch injury” was subsequently allowed to repopulate for 24 hours in the presence of 30 μM ACT 1 peptide (SEQ ID NO:2) dissolved in the culture media (FIG. 2a, b) or in presence of two control conditions (FIG. 2c-f). In the first control condition, the “scratch-injured” cells were allowed to repopulate for 24 hours in the presence of a non-active control peptide (as in FIG. 1) dissolved in the culture media at a concentration of 30 μM (FIG. 2c, d). In the second control condition, phosphate buffered saline (PBS) was added to the culture media and the “scratch-injured” cells were allowed to repopulate in the presence of this vehicle control solution containing no ACT peptide or control peptide (FIG. 2e, f). […] The repopulation of the “scratch injury” occurs in part via migration of the transformed cells crawling into the “scratch injury” area. Figures (FIGS. 2b, d, and f) show proliferating cell nuclear antigen (PCNA) immunolabeling of cells in the “scratch injury” or at the injury edge.
The cells were labeled with fluorescent phalloidin to aid visualization. ACT peptide-treated cells show low levels of repopulation of the scratch injury area (white double headed arrows).

ACT peptide: alpha Connexin carboxy-Terminal polypeptide used in brain injury and Example 4 studies; sequence not stated there (RQPKIWFPNRRKPWKKRPRPDDLEI; not fully specified (N-terminus))
density of GFAP-positive astrocytes adjacent the HFM (brain penetration injury; 100 μM in 2% collagen vehicle within HFM, 1 week after injury, vs collagen vehicle gel): much lower density
neurons in the process of fission (brain penetration injury; 100 μM in HFM, 1 week, high magnification view, relative to the control): high frequency of neurons in the process of fission
numbers of NeuN immunolabeled neurons proximal to the HFM (brain penetration injury; 100 μM in HFM, 1 week, vs control): higher numbers
size of GFAP-positive astrocytes (brain penetration injury; 100 μM in HFM, 1 week, vs control injury): smaller
strain (extensibility) required to break wounds ([1]; at 1 month, vs control wounds): modestly improved
strain to break of peptide-treated wound skin, normalized to normal skin ([1]; at 3 months, normalized to normal skin, control wounds 60%): 90%
normalized stress to break of wound skin ([1]; at 3 months, vs control wounded skin, not significant (high variance)): double
increase in the number of regenerated hair follicles per unit area of the healed wound over control wounds ([1]; at 10 days): 3.2 fold
wound size, smaller than control wounds (average) ([1]; at 10 days): 43%
wound closure relative to control wounds ([1]; within 24 hours of peptide treatment, n=12 vs control n=8): significantly enhanced

KARSDDLSV [ACT 5, 9 amino acids of the carboxy terminus of human Cx40]
closure, inflammation, healing and scarring of injuries [2]: closed faster, were significantly less inflamed in appearance, healed faster and scarred less
wound closure rates (area of open wound as % of unclosed wound relative to the control) ([2]; 100 μM): significantly improved wound closure rates

PSSRASSRASSRPRPDDLEI [ACT 2]
closure, inflammation, healing and scarring of injuries [2]: closed faster, were significantly less inflamed in appearance, healed faster and scarred less
wound closure rates (area of open wound as % of unclosed wound relative to the control) ([2]; 100 μM): significantly improved wound closure rates

RPRPDDLEV [ACT 3]
closure, inflammation, healing and scarring of injuries [2]: closed faster, were significantly less inflamed in appearance, healed faster and scarred less
size of improvement in wound closure over the control, compared among peptides ([2]; 100 μM, over the time course): most pronounced improvements over the control
wound closure rates (area of open wound as % of unclosed wound relative to the control) ([2]; 100 μM): significantly improved wound closure rates

RPRPDDVPV [ACT 4]
closure, inflammation, healing and scarring of injuries [2]: modest improvement in healing over the control
wound closure rates (area of open wound as % of unclosed wound relative to the control) ([2]; 100 μM): more modest, although consistent, improvement

RQPKIWFPNRRKPWKIELDDPRPR (not fully specified (N-terminus)) [non-active control peptide, reference compound]
proliferating cell nuclear antigen (PCNA) immunolabeling of cells in the scratch injury or at the injury edge (NIH-3T3 cells): brightly labeled proliferating cells seen
repopulation of the scratch injury area (NIH-3T3 cells; 24 hrs pre-treatment): large numbers of cells
